Literature values in patent US20050244462A1, “Devices and methods for treating a mammalian eye” (Allergan, Inc., priority 2004, published 2005).

Settings: steroidal anti-inflammatory efficacy in vivo; 25 mg hydrocortisone equivalent to 1 mg dexamethasone; Goodman and Gilman 8th ed. p. 1447

Compound: C[C@]12CCC(=O)C=C1CC[C@@H]1[C@@H]2[C@@H](O)C[C@@]2(C)[C@H]1CC[C@]2(O)C(=O)CO [hydrocortisone]
- potency relative to dexamethasone: approximately twentyfivefold less potent than dexamethasone
